Laboratory results: PubChem BioAssay AID248 (DTP/NCI, 2004)
Several values for one entry are separate records, joined by “and”; a condition that tells them apart may be missing. Equal values may be shown once. Inconclusive results and toxic doses are left out. No stated cut-off is given here; in the data, active means T/C of 150% or more; inactive means T/C below 125%.

System: L1210 leukemia ip in BDF1 mice, survival T/C
Assay: NCI In Vivo Anticancer Drug Screen. Data for tumor model L1210 Leukemia (intraperitoneal) in B6D2F1 (BDF1) mice
Details: endpoint: mean survival time, higher = longer survival
Outline: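 Transplanted-tumor mice were given test agent; controls received vehicle only. Survival readings from the two groups were divided (treated over control).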

[1] = dose: 25.0 mg/kg/injection, schedule: Q01DX009 (ip), vehicle: saline with Tween-80
[2] = dose: 50.0 mg/kg/injection, schedule: Q01DX009 (ip), vehicle: saline with Tween-80
[3] = dose: 100.0 mg/kg/injection, schedule: Q04DX003 (ip), vehicle: saline with Tween-80
[4] = dose: 200.0 mg/kg/injection, schedule: Q04DX003 (ip), vehicle: saline with Tween-80
[5] = dose: 25.0 mg/kg/injection, schedule: Q01DX009 (ip), vehicle: saline
[6] = dose: 50.0 mg/kg/injection, schedule: Q01DX009 (ip), vehicle: saline
[7] = dose: 100.0 mg/kg/injection, schedule: Q04DX003 (ip), vehicle: saline
[8] = dose: 200.0 mg/kg/injection, schedule: Q04DX003 (ip), vehicle: saline
[9] = dose: 100.0 mg/kg/injection, schedule: Q01DX009 (ip), vehicle: saline
[10] = dose: 400.0 mg/kg/injection, schedule: Q04DX003 (ip), vehicle: saline with Tween-80
[11] = dose: 100.0 mg/kg/injection, schedule: Q01DX001 (ip), vehicle: saline
[12] = dose: 200.0 mg/kg/injection, schedule: Q01DX001 (ip), vehicle: saline
[13] = dose: 400.0 mg/kg/injection, schedule: Q01DX001 (ip), vehicle: saline
[14] = dose: 100.0 mg/kg/injection, schedule: Q04DX003 (ip), vehicle: Klucel (hydroxypropylcellulose) (HPC)
[15] = dose: 200.0 mg/kg/injection, schedule: Q04DX003 (ip), vehicle: Klucel (hydroxypropylcellulose) (HPC)
[16] = dose: 400.0 mg/kg/injection, schedule: Q04DX003 (ip), vehicle: Klucel (hydroxypropylcellulose) (HPC)
[17] = dose: 100.0 mg/kg/injection, schedule: Q01DX009 (ip), vehicle: saline with Tween-80

Measured: T/C

CCc1ccc(NC(=O)Nc2ccccc2OC)cc1
inactive: dose: 100.0 mg/kg/injection, schedule: Q01DX009 (ip), vehicle: gum acacia 97 % of control | dose: 100.0 mg/kg/injection, schedule: Q04DX003 (ip), vehicle: gum acacia 98 % of control | dose: 200.0 mg/kg/injection, schedule: Q01DX009 (ip), vehicle: gum acacia 94 % of control | dose: 200.0 mg/kg/injection, schedule: Q04DX003 (ip), vehicle: gum acacia 92 % of control | dose: 400.0 mg/kg/injection, schedule: Q01DX009 (ip), vehicle: gum acacia 91 % of control | dose: 400.0 mg/kg/injection, schedule: Q04DX003 (ip), vehicle: gum acacia 104 % of control

O=C(Nc1ccccc1F)c1ccc(C(=O)Nc2ccccc2F)cc1
inactive: dose: 12.5 mg/kg/injection, schedule: Q01DX009 (ip), vehicle: saline with Tween-80 92 % of control | [1] 86 % of control | [2] 90 % of control | [3] 90 % of control | [4] 87 % of control

CC(C)(C)CC(=O)OCCC[N+](C)(C)C
inactive: dose: 25.0 mg/kg/injection, schedule: Q01DX009 (ip), vehicle: water 104 % of control | dose: 50.0 mg/kg/injection, schedule: Q01DX009 (ip), vehicle: water 106 % of control

CCN(CC)CCNCCN
inactive: dose: 12.5 mg/kg/injection, schedule: Q01DX009 (ip), vehicle: saline 107 % of control | [5] 111 % of control | [6] 101 % of control and 102 % of control | [7] 94 % of control | [8] 96 % of control

CNC(=O)Nc1cccc([N+](=O)[O-])c1OC
inactive: dose: 100.0 mg/kg/injection, schedule: Q04DX002 (ip), vehicle: Klucel (hydroxypropylcellulose) (HPC) 100 % of control | dose: 200.0 mg/kg/injection, schedule: Q04DX002 (ip), vehicle: Klucel (hydroxypropylcellulose) (HPC) 103 % of control | dose: 400.0 mg/kg/injection, schedule: Q04DX002 (ip), vehicle: Klucel (hydroxypropylcellulose) (HPC) 106 % of control

O=C(O)Cc1sc(=O)[nH]c1O
inactive: [9] 96 % of control | [7] 102 % of control | dose: 200.0 mg/kg/injection, schedule: Q01DX009 (ip), vehicle: saline 96 % of control | [8] 96 % of control | dose: 400.0 mg/kg/injection, schedule: Q01DX009 (ip), vehicle: saline 99 % of control | dose: 400.0 mg/kg/injection, schedule: Q04DX003 (ip), vehicle: saline 106 % of control

CCN(CC)Cc1ccccn1
inactive: dose: 25.0 mg/kg/injection, schedule: Q04DX003 (ip), vehicle: saline 102 % of control | dose: 50.0 mg/kg/injection, schedule: Q04DX003 (ip), vehicle: saline 107 % of control | [7] 96 % of control

COc1cc(/C=N/NC(=O)C[n+]2ccccc2)cc(OC)c1
inactive: [5] 119 % of control | [6] 103 % of control | [9] 116 % of control | [7] 96 % of control

COc1cc(Nc2nc(Cl)ncc2[N+](=O)[O-])cc(OC)c1OC
inactive: [3] 90 % of control | [4] 92 % of control | [10] 92 % of control

COc1cc2c(c(OC)c1OC)-c1ccc(OC)c(=O)cc1C(=O)CC2
inactive: dose: 50.0 mg/kg/injection, schedule: Q01DX001 (ip), vehicle: carboxymethylcellulose (CMC) 122 % of control

O=C(O)c1cc(Cl)ccc1O
inactive: dose: 100.0 mg/kg/injection, schedule: Q04DX002 (ip), vehicle: other 100 % of control | dose: 200.0 mg/kg/injection, schedule: Q04DX002 (ip), vehicle: other 103 % of control

C[C@]1(O)CC[C@H]2[C@@H]3CC[C@@H]4CC(=O)CC[C@]4(C)[C@@]3(F)C(=O)C[C@@]21C
inactive: dose: 50.0 mg/kg/injection, schedule: Q01DX Z (sc), vehicle: steriod suspending solution 96 % of control | dose: 250.0 mg/kg/injection, schedule: Q01DX Z (sc), vehicle: steriod suspending solution 101 % of control | dose: 500.0 mg/kg/injection, schedule: Q01DX Z (sc), vehicle: steriod suspending solution 98 % of control

Cc1cc(=O)cc(C)[nH]1
inactive: [11] 90 % of control | [12] 94 % of control | [13] 92 % of control

CCCCCCNCCC[P+](c1ccccc1)(c1ccccc1)c1ccccc1
inactive: dose: 12.5 mg/kg/injection, schedule: Q04DX002 (ip), vehicle: saline 91 % of control | dose: 25.0 mg/kg/injection, schedule: Q04DX002 (ip), vehicle: saline 98 % of control | dose: 50.0 mg/kg/injection, schedule: Q04DX002 (ip), vehicle: saline 98 % of control

c1ccc2c(c1)ccc1[nH]c3ccccc3c12
inactive: [11] 120 % of control | [12] 96 % of control | [13] 93 % of control

COC(=O)C(C)NC(=O)CNC(=O)CNC(=O)OCc1ccccc1 (stereo not given)
inactive: [14] 97 % of control | [15] 100 % of control | [16] 95 % of control

O=C(CCCc1ccc(N(CCCl)CCCl)cc1)NC1CCCC1
inactive: dose: 4.0 mg/kg/injection, schedule: Q12HX018 (ip), vehicle: other 103 % of control | dose: 6.0 mg/kg/injection, schedule: Q12HX018 (ip), vehicle: other 98 % of control | dose: 8.0 mg/kg/injection, schedule: Q12HX018 (ip), vehicle: other 103 % of control

O=C(NC1CC2c3ccccc3C1c1ccccc12)NC1CC2c3ccccc3C1c1ccccc12 (stereo not given)
inactive: [14] 94 % of control | [15] 89 % of control | [16] 98 % of control

COc1ccc2c(c1Oc1ccc([N+](=O)[O-])cc1[N+](=O)[O-])C13CCN(C)C(C2)C1CCC1(C3)OCCO1 (stereo not given)
inactive: dose: 12.5 mg/kg/injection, schedule: Q01DX009 (ip), vehicle: Klucel (hydroxypropylcellulose) (HPC) 98 % of control | dose: 25.0 mg/kg/injection, schedule: Q01DX009 (ip), vehicle: Klucel (hydroxypropylcellulose) (HPC) 121 % of control | dose: 50.0 mg/kg/injection, schedule: Q01DX009 (ip), vehicle: Klucel (hydroxypropylcellulose) (HPC) 101 % of control | dose: 100.0 mg/kg/injection, schedule: Q01DX009 (ip), vehicle: Klucel (hydroxypropylcellulose) (HPC) 102 % of control | dose: 200.0 mg/kg/injection, schedule: Q01DX009 (ip), vehicle: Klucel (hydroxypropylcellulose) (HPC) 102 % of control | dose: 400.0 mg/kg/injection, schedule: Q01DX009 (ip), vehicle: Klucel (hydroxypropylcellulose) (HPC) 88 % of control

O=C1C(O)=C(c2ccccc2C(=O)O)C(=O)C(O)=C1c1ccccc1C(=O)O
inactive: [1] 101 % of control | [2] 101 % of control | dose: 50.0 mg/kg/injection, schedule: Q04DX002 (ip), vehicle: saline with Tween-80 102 % of control | [17] 96 % of control | dose: 100.0 mg/kg/injection, schedule: Q04DX002 (ip), vehicle: saline with Tween-80 98 % of control and 109 % of control | dose: 200.0 mg/kg/injection, schedule: Q04DX002 (ip), vehicle: saline with Tween-80 102 % of control and 113 % of control | dose: 400.0 mg/kg/injection, schedule: Q04DX002 (ip), vehicle: saline with Tween-80 98 % of control and 104 % of control

O=C1C2C3CCC(CC3)C2C(O)C2C3CCC(C3)C12 (stereo not given)
inactive: [2] 93 % of control | [17] 96 % of control | dose: 200.0 mg/kg/injection, schedule: Q01DX009 (ip), vehicle: saline with Tween-80 93 % of control

O=C(O)Cc1ccc(Br)cc1
inactive: [3] 93 % of control | [4] 96 % of control | [10] 102 % of control
